In PMC10906247, “From Functional Fatty Acids to Potent and Selective Natural-Product-Inspired Mimetics via Conformational Profiling” (ACS Central Science, 2024):
Several values for one entry are separate records, joined by “and”; a condition that tells them apart may be missing. Equal values may be shown once. Read-outs that look alike come from different tables or passages of the source.

Experiments:
[1] = target: T1, TLX ligand binding domain (Homo sapiens, UniProt Q9Y466); assay: TLX ligand sensing assay (AlphaScreen, RIP140 NR box peptide recruitment); format: biochemical
T1 construct: purchased NovAliX SAS, Strasbourg, France
T1 sequence (Q9Y466 155-383 limits assumed): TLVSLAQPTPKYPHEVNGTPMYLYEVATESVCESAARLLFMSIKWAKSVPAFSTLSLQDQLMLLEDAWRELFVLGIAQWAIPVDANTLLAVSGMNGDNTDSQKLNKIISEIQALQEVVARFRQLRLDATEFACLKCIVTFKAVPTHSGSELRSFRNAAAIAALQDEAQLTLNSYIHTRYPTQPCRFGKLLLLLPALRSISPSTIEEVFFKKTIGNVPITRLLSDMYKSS

[2] = Metabolic stability / intrinsic clearance in cryopreserved human hepatocytes
Experimental: To gain insight into potential metabolic issues, a preliminary assessment of 1-E and 3-C in a metabolic stability assay utilizing human hepatocytes was conducted.
7.1. ADME-Tox: In Vitro Metabolism
Intrinsic clearance (cr yopreserved hepatocytes, human)
Note: Unit of Clint is µ L/min/mg for microsomes, S9 and UGT assa ys; µL/min/pmol for CYP assays; µ L/min/Million cells for hepatocyte assays […]
8.1. Experimental Conditions
8.1.1. ADME-Tox: In Vitro Metabolism
8.2. Analysis and expression of results
8.2.1. ADME-Tox: In Vitro Metabolism
Intrinsic Clearance (microsomes, S9, cryopreserved hepatocytes, reco mbinant CYP, recombinant UGT) Metabolic stability, expressed as percent of the parent compound remaining , was calculated by comparing the peak area of the compound at the time point relative to that at time -0. The ha lf-life (T1/2) was estimated from the slope of the initial linear range of the logarithmic curve of compound remaining (%) vs. time, assu ming the first -order kinetics. The apparent intrinsic cleara nce (CLint, in µL/min/pmol, µL/min/mg or µL/min/Mcell ) was calculated according to the following formula: […]
T1/2*(mg protein/µL or million cells/µL or pmol CYP iso zyme/µL)

GPR40 (FFAR1) = GPR40 (FFAR1) (Homo sapiens, UniProt O14842); assay: PathHunter β-arrestin assay (Eurofins Discovery), GPR40; format: cell-based; settings: for GPR40 max. efficacy: oleic acid = 100
Chain of GPR40 (FFAR1) (O14842 whole entry): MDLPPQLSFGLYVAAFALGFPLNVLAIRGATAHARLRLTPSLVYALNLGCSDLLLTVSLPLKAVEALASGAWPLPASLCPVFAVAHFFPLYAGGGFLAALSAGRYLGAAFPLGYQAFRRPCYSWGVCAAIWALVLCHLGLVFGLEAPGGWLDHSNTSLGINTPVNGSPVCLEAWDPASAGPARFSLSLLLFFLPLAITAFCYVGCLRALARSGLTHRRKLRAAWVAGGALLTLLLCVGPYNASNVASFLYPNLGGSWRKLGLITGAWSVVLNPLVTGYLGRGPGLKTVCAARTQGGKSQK
Experimental: (§1) With these compounds in hand, attention was directed at evaluating their properties as ligands to GPR40, GPR120,[24] and TLX. Initial profiling experiments were conducted targeting the GPCR targets at a single concentration (15 μM) in a commercially available β-arrestin assay.
(§2) Functional assays at GPR40 and GPR120 were conducted by Eurofins Discovery services using their PathHunter® b-Arrestin assay that monitors the activation of a GPCR in a homogenous, non-imaging assay format using a technology developed by DiscoverX called Enzyme Fragment Complementation (EFC) with b-galactosidase (b-Gal) as the functional reporter. b-Arrestin GPCR cell lines built on the principles of EFC are engineered to co-express the ProLinkTM (PK) tagged GPCR and the Enzyme Acceptor (EA) tagged b-Arrestin. Activation of the GPCR-PK induces b-Arrestin-EA recruitment, forcing complementation of the two b-galactosidase enzyme fragments (EA and PK). The resulting functional enzyme hydrolyzes substrate to generate chemiluminescent […]
(§3) Additional information can be found at: www.eurofinsdiscovery.com/solution/b-arrestin Below are dose-response curves generated from Eurofins Discovery services for activity of ligands depicted in Figure 6B at GPR40 (FFAR1) and GPR120. […]

GPR120 = target: T2, GPR120 (Homo sapiens, UniProt Q5NUL3); assay: PathHunter β-arrestin assay (Eurofins Discovery), GPR120; format: cell-based; settings: for EC50: β-arrestin assay, read-out: GPR120 EC50 measured; for GPR120 max. efficacy: oleic acid = 100
T2 sequence (Q5NUL3 1-361): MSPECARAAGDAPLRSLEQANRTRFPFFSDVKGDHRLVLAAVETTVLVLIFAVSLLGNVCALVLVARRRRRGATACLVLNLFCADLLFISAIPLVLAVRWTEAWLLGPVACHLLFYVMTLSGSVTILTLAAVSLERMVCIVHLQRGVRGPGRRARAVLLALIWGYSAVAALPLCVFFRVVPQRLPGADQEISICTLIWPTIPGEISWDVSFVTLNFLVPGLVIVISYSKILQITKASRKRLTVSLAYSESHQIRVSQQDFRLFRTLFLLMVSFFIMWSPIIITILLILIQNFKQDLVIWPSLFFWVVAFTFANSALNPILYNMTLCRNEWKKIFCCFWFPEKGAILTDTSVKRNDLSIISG
Experimental: as §1, §2, §3

GPR40 = settings: GW9508; read-out: GPR40 EC50 historical; cited from earlier work
[3] = ALPHA normalized, supplement, read-out: TLX EC50 (dose-response curves)
[4] = dose-response, β-arrestin assay, read-out: GPR40 EC50 measured
[5] = maximal efficacy measured at 100 μM

**Q.** For CCC[C@H](C)/C=C(/C)C/C(C)=C/[C@H](C)CCCCCCCC(=O)O [4-E], which EC50 [1, 3] is on record?
**A.** The EC50 was 1320 nM.

**Q.** Which EC50 [1, 3] does the source give for CCCCCCCCCC/C=C(/C)C/C(C)=C/[C@H](C)CC(=O)O [1-A] here?
**A.** Its EC50 is 2180 nM.

**Q.** With CCCCC[C@H](C)/C=C(/C)C/C(C)=C/[C@H](C)CCCCCC(=O)O [3-E] as the compound, how does the EC50 [1, 3] read?
**A.** Its EC50 is 959 nM.

**Q.** With CCCCC[C@@H](C)/C=C(/C)C/C(C)=C/[C@@H](C)CCCCCC(=O)O [3-D] as the compound, how does the EC50 [1, 3] read?
**A.** Its EC50 is 1170 nM.

**Q.** Which results are given for CCN(CC)CCN1C(=O)CN=C(c2ccccc2F)c2cc(Cl)ccc21 [Flurazepam, reference compound]?
**A.** Half-life, single replicates (1st, 2nd, 3rd) ([2]; human hepatocytes, 1.0E-06 M): 47.8 min and 53.7 min; hepatocyte CLint at 1 µM ([2]; human, hepatocytes): 19.3 µL/min/1e6 cells; half-life at 1 µM ([2]; human, hepatocytes, Half-life (mean), human hepatocytes, 1.0E-06 M): 51 min; half-life at 1 µM ([2]; human, hepatocytes, Half-life, single replicates (1st, 2nd, 3rd), human hepatocytes, 1.0E-06 M): 52.9 min

**Q.** For CCCCCC/C=C(/C)C/C(C)=C/[C@H](C)CCCCCC(=O)O [3-A], which EC50 [1, 3] is on record?
**A.** The EC50 was 1560 nM.

**Q.** For CCCCCCC[C@@H](C)/C=C(/C)C/C(C)=C/[C@@H](C)CCCC(=O)O [2-D], which “GPR40 potency relative to oleic acid” value (GPR40 (FFAR1); EC50 ratio vs control oleic acid) is on record?
**A.** The value was roughly 7 times.

**Q.** And the EC50 (GPR40 (FFAR1); [4])?
**A.** The EC50 was 5500 nM and ~5000 nM.

**Q.** What about the GPR40 max. efficacy (GPR40 (FFAR1); dose-response) of the same compound?
**A.** Its GPR40 max. efficacy is 87%.

**Q.** What about the EC50 (GPR120; dose-response) of the same compound?
**A.** Its EC50 is ≥ 7500 nM and 1000 to 7000 nM.

**Q.** What about the GPR120 max. efficacy (GPR120; [5]) of the same compound?
**A.** Its GPR120 max. efficacy is 44%.

**Q.** And the EC50 [1, 3]?
**A.** Its EC50 is 1320 nM.

**Q.** Which EC50 [1, 3] does the source give for CCCCC[C@H](C)/C=C(/C)C/C(C)=C/[C@@H](C)CCCCCC(=O)O [3-F] here?
**A.** The EC50 was 892 nM.

**Q.** And the EC50 ([1]; coactivator recruitment, read-out: TLX EC50)?
**A.** The EC50 was 900 nM.

**Q.** What about the TLX max. efficacy ([1]; oleic acid = 100) of the same compound?
**A.** The TLX max. efficacy was 71%.

**Q.** Which EC50 [1, 3] does the source give for CCCCCCCCC[C@@H](C)/C=C(/C)C/C(C)=C/[C@@H](C)CC(=O)O [1-D] here?
**A.** Its EC50 is 3170 nM.

**Q.** With CCCCCCCCC[C@@H](C)/C=C(/C)C/C(C)=C/[C@H](C)CC(=O)O [1-C] as the compound, how does the EC50 (GPR40 (FFAR1); [4]) read?
**A.** The EC50 was 7800 nM.

**Q.** What about the GPR40 max. efficacy (GPR40 (FFAR1); dose-response) of the same compound?
**A.** The GPR40 max. efficacy was 109%.

**Q.** And the EC50 (GPR120; dose-response)?
**A.** The EC50 was greater than 51000 nM.

**Q.** And the GPR120 max. efficacy (GPR120; [5])?
**A.** Its GPR120 max. efficacy is 29%.

**Q.** And the EC50 [1, 3]?
**A.** The EC50 was 3120 nM.

**Q.** Which EC50 [1, 3] does the source give for CCCCCCCC/C=C(/C)C/C(C)=C/[C@@H](C)CCCC(=O)O [2-B] here?
**A.** The EC50 was 3080 nM.

**Q.** With CCCC/C=C(/C)C/C(C)=C/[C@@H](C)CCCCCCCC(=O)O [4-B] as the compound, how does the EC50 [1, 3] read?
**A.** Its EC50 is 2970 nM.

**Q.** What does the source list for CC(C)NCC(O)COc1cccc2ccccc12 (stereo not shown) [Propanolol, Propranolol, reference compound]?
**A.** half-life at 1 µM ([2]; human, cryopreserved human hepatocytes, Half-life (mean), human hepatocytes, 1.0E-06 M): 187 min; half-life at 1 µM ([2]; human, cryopreserved human hepatocytes, Half-life, single replicates (1st, 2nd, 3rd), human hepatocytes, 1.0E-06 M): 195 min

**Q.** With O=C(O)CCc1ccc(NCc2cccc(Oc3ccccc3)c2)cc1 [GW9508, reference compound] as the compound, how does the EC50 (GPR40 (FFAR1); [4]) read?
**A.** The EC50 was 1000 nM.

**Q.** What about the GPR40 max. efficacy (GPR40 (FFAR1); dose-response) of the same compound?
**A.** The GPR40 max. efficacy was 229%.

**Q.** What about the EC50 (GPR40 (FFAR1); three independent assays behind the average, read-out: GPR40 EC50, independent assays) of the same compound?
**A.** The EC50 was 1500 nM and 980 nM and 700 nM.

**Q.** And the GPR120 max. efficacy (GPR120; dose-response)?
**A.** The GPR120 max. efficacy was 87%.

**Q.** What about the EC50 (GPR40) of the same compound?
**A.** The EC50 was 47 nM.

**Q.** For CCCCCCC[C@H](C)/C=C(/C)C/C(C)=C/[C@@H](C)CCCC(=O)O [2-F], which EC50 [1, 3] is on record?
**A.** The EC50 was 1560 nM.
